According to the supplement of paper PMC10307832:

Legend:
Experiment in all cases: relative viability (nuclei count vs DMSO), 5 days (fraction); higher = more cells survive
[1] = compound: C1=CC2=C(C=C(C(=C2N=C1)O)N=NC3=CC4=C(C=C3)C=C(C=C4)S(=O)(=O)O)S(=O)(=O)O + CC(C)C[C@H](NC(=O)[C@H](Cc1ccccc1)NC(=O)c1cnccn1)B(O)O [Bortezomib] (partner 0.002 µM)
Summary of the method: (§1)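 Five library-drug doses in √10 steps were combined with a fixed anchor-drug dose, or a single drug was given alone, by pin tool to lung cancer cell lines in 1536-well plates the day after seeding. Nuclei were stained and counted after 5 days. Relative viability is the nuclei count in treated wells over that in vehicle wells, taken as the median of duplicate plates.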

[2] = compound: C1=CC2=C(C=C(C(=C2N=C1)O)N=NC3=CC4=C(C=C3)C=C(C=C4)S(=O)(=O)O)S(=O)(=O)O + O=C(CCCCCCC(=O)Nc1ccccc1)NO [Vorinostat] (partner 1 µM)
Summary of the method: as §1

AT-7519 + Phenformin = compound: O=C(NC1CCNCC1)c1n[nH]cc1NC(=O)c1c(Cl)cccc1Cl [AT-7519] + N=C(N)NC(=N)NCCc1ccccc1 [Phenformin] (partner 250 µM)
Summary of the method: as §1

AT-7519 + AZD7762 = compound: O=C(NC1CCNCC1)c1n[nH]cc1NC(=O)c1c(Cl)cccc1Cl [AT-7519] + NC(=O)Nc1cc(-c2cccc(F)c2)sc1C(=O)N[C@H]1CCCNC1 [AZD7762] (partner 0.2 µM)
Summary of the method: as §1

Cell Line	relative viability ([1]; first compound 0.08 µM)	relative viability ([1]; first compound 0.253 µM)	relative viability ([1]; first compound 0.8 µM)	relative viability ([1]; first compound 2.53 µM)	relative viability ([1]; first compound 8 µM)	relative viability ([2]; first compound 0.08 µM)	relative viability ([2]; first compound 0.253 µM)	relative viability ([2]; first compound 0.8 µM)	relative viability ([2]; first compound 2.53 µM)	relative viability ([2]; first compound 8 µM)	relative viability (AT-7519 + Phenformin; first compound 0.01 µM)	relative viability (AT-7519 + Phenformin; first compound 0.03162 µM)	relative viability (AT-7519 + Phenformin; first compound 0.3162 µM)	relative viability (AT-7519 + Phenformin; first compound 1 µM)	relative viability (AT-7519 + AZD7762; first compound 0.01 µM)	relative viability (AT-7519 + AZD7762; first compound 0.03162 µM)	relative viability (AT-7519 + AZD7762; first compound 0.3162 µM)	relative viability (AT-7519 + AZD7762; first compound 1 µM)
LCLC-103H	1.14	1.14	1.12	1.15	1.02	0.797	0.784	0.827	0.785	0.859	0.32	0.296	0.313	0.33	0.8	0.739	0.807	0.901
PC-3 [JPC-3]	0.908	0.849	0.768	0.794	0.851	0.648	0.819	0.751	0.843	0.709	0.471	0.474	0.45	0.484	0.908	0.844	0.671	0.992
BEN	0.967	0.75	0.776	0.875	0.873	0.562	0.695	0.526	0.599	0.589	0.522	0.234	0.269	0.257	0.685	0.754	0.697	0.704
NCI-H1666	0.874	0.658	0.799	0.859	0.658	1.05	0.98	1.03	1.07	0.985	0.59	0.568	0.538	0.402	0.852	0.818	0.917	0.863
LC-2-ad	1.12	1.04	0.976	1.08	0.902	0.702	0.744	0.729	0.699	0.725	0.522	0.573	0.498	0.413	0.77	0.844	0.826	0.945
ChaGo-K-1	1.05	1.03	0.986	0.958	0.557	0.827	0.812	0.698	0.723	0.494	0.459	0.392	0.404	0.451	0.895	0.838	0.843	0.844
NCI-H1975	0.389	0.385	0.377	0.327	0.42	0.707	0.693	0.63	0.753	0.732	0.382	0.408	0.274	0.155	0.691	0.744	0.76	0.638
NCI-H1993	1.08	1.07	1.28	1.3	0.977	0.844	0.866	0.798	0.783	0.788	0.544	0.574	0.528	0.439	0.671	0.637	0.736	0.38
